Assay results: US10573426B2, “Fluorinated nitriles as dielectric gases” (3M INNOVATIVE PROPERTIES COMPANY, priority 2012, dated 2020)

Legend:
rats = assay: 4 hour inhalation LC50 in rats; format: in vivo
Experimental: (§1) For example, heptafluoroisobutyronitrile and 2,3,3,3-tetrafluoro-2-(trifluoromethoxy) propanenitrile have 4 hour inhalation lethal concentration at 50% (“LC-50”, defined as the dose required to produce lethality in half the members of a tested population after a specified test duration) (in rats) values of about 15,000 ppm. […] The nitriles of the present disclosure achieve these lower toxicities without the addition of additives such as nitrite esters as in U.S. Pat. No. 4,547,316.

6 hour inhalation LC50 = format: in vivo; settings: species not given
Experimental: as §1

Row | Structure (SMILES) | 4 hour inhalation lethal concentration at 50% (LC-50) (rats) | 6 hour inhalation LC50 (6 hour inhalation LC50) [ppm]
1 | N#CC(F)(OC(F)(F)F)C(F)(F)F (centres unmarked) [2,3,3,3-tetrafluoro-2-(trifluoromethoxy)propanenitrile] | about 15,000 ppm | –
2 | N#CC(F)(F)C(F)(F)C(F)(F)F [CF3CF2CF2CN] | less than 6,000 ppm | –
3 | N#CC(F)(F)C(F)(F)F [CF3CF2CN] | 2731 ppm | –
4 | N#CC(F)(F)F [CF3CN] | – | 240
5 | N#CC(F)(C(F)(F)F)C(F)(F)F [heptafluoroisobutyronitrile, Heptafluoroisobutyronitrile] | about 15,000 ppm | –
